The text below walks through data of PubChem BioAssay (NCI).

Some test systems named below: LOX IMVI melanoma; KM12 colon; U251 CNS; SNB-75 CNS; UACC-257 melanoma; HOP-92 NSCLC; A549 NSCLC; ACHN renal; RXF 393 renal; CAKI-1 renal.
Experiment in all cases: inhibition of tumour cell growth, NCI panel, 48 h

SMILES strings stand for the structures. Several values for one entry are separate records, joined by “and”; a condition that tells them apart may be missing. Equal entries are not always repeated.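 Protocol summary: plate cells (96-well), add compound at 5 concentrations, incubate 48 h, interpolate endpoints linearly. Abbreviation: GI50, concentration required for 50% inhibition of growth. At the TGI there is no net growth.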 Some results are limits rather than exact numbers.

In the case of `Cc1ccc(S(=O)(=O)Oc2ccc3c4c(c(=O)oc3c2)CCCCCC4)cc1`, the GI50 in the assay with LOX IMVI melanoma is more than 100 µM; with KM12 colon, 4.78 µM; in the assay with U251 CNS, more than 100 µM; in the assay with SNB-75 CNS, more than 100 µM; with UACC-257 melanoma, 8.7 µM; with HOP-92 NSCLC it was 1.34 µM. Besides, the GI50 in the assay with A549 NSCLC, in the assay on ACHN renal and in the assay with RXF 393 renal was more than 100 µM throughout. Besides, the TGI in the assay on LOX IMVI melanoma, with KM12 colon, with U251 CNS, in the assay on SNB-75 CNS, in the assay with UACC-257 melanoma and in the assay with HOP-92 NSCLC was more than 100 µM throughout. Further, the TGI with A549 NSCLC, in the assay with ACHN renal and in the assay with RXF 393 renal was more than 100 µM in each case.
Turning to `COc1ccc(-c2c(C)c(C(=O)O)nc(-c3ccc4c(O)c(OC)c5c(c4n3)=NC(C)(C)N=5)c2N)c(O)c1OC`, the TGI with LOX IMVI melanoma was 25.7 µM; with KM12 colon it was 33.1 µM; in the assay with U251 CNS, 25.8 µM; in the assay with SNB-75 CNS it was 11.4 µM; with UACC-257 melanoma, 98.4 µM; in the assay with HOP-92 NSCLC it was more than 100 µM. Moreover, the TGI worked out at 55.5 µM in the assay with A549 NSCLC, 27.7 µM with ACHN renal and 51.7 µM in the assay on RXF 393 renal.
Regarding `C=C1C(=O)O[C@H]2[C@H]1CC/C(COC(=O)CCCCCC(=O)OC/C1=C/CC[C@@]3(C)O[C@H]3[C@H]3OC(=O)C(=C)[C@@H]3CC1)=C\CC[C@@]1(C)O[C@@H]21`, the GI50 with LOX IMVI melanoma is 1.47 µM; with KM12 colon it was 2.17 µM; with U251 CNS, 2.64 µM; in the assay on SNB-75 CNS, 3.05 µM; in the assay with UACC-257 melanoma it was 1.93 µM; in the assay with HOP-92 NSCLC, 1.7 µM. In addition, the GI50 in the assay with A549 NSCLC is 10.4 µM; with ACHN renal, 1.4 µM; with RXF 393 renal, 1.1 µM. Also, the TGI is 2.88 µM in the assay with LOX IMVI melanoma; 5.4 µM in the assay on KM12 colon; 9.61 µM in the assay with U251 CNS; 29.6 µM in the assay on SNB-75 CNS; 5.63 µM with UACC-257 melanoma; 4.12 µM in the assay with HOP-92 NSCLC. In addition, the TGI in the assay on A549 NSCLC was 23.8 µM; in the assay on ACHN renal it was 3.1 µM; with RXF 393 renal, 2.41 µM.
`O=c1cc(-c2ccccn2)[nH]c2cccc(F)c12`: the TGI in the assay with LOX IMVI melanoma, in the assay with KM12 colon, with SNB-75 CNS, with UACC-257 melanoma, in the assay on HOP-92 NSCLC and in the assay on A549 NSCLC was more than 100 µM in each case. The TGI in the assay on ACHN renal and with RXF 393 renal was more than 100 µM each time.
Take `COc1cc(CNc2nc3c(N)cc(C(F)(F)F)cc3nc2-c2ccccc2)cc(OC)c1OC`: the TGI with LOX IMVI melanoma, in the assay with KM12 colon, with U251 CNS, in the assay with SNB-75 CNS, with UACC-257 melanoma and with HOP-92 NSCLC was more than 100 µM in each case. Moreover, the figures for the TGI in the assay on A549 NSCLC, in the assay on ACHN renal and in the assay with RXF 393 renal were more than 100 µM, more than 100 µM and 69.4 µM, respectively.
With `COC(=O)CCC(NC(=S)N/N=C(\C)c1ccc[nH]1)C(=O)OC` (centres undefined), the TGI in the assay on LOX IMVI melanoma, in the assay with KM12 colon, in the assay on U251 CNS, in the assay with SNB-75 CNS, with UACC-257 melanoma and with HOP-92 NSCLC was more than 100 µM in each case. For the same compound, the TGI with A549 NSCLC, with ACHN renal and in the assay with RXF 393 renal was more than 100 µM in each case.
For `CN1C(=O)c2ccc3ccccc3c2C1=O`, the TGI with KM12 colon, in the assay with U251 CNS, with SNB-75 CNS, in the assay with UACC-257 melanoma, in the assay on HOP-92 NSCLC and in the assay with A549 NSCLC was more than 100 µM throughout. Moreover, the figures for the TGI in the assay on ACHN renal, in the assay on RXF 393 renal and with CAKI-1 renal were more than 100 µM, 96.6 µM and more than 100 µM, respectively.
In the case of `COc1cc(/C=C/c2ccc(C)cc2)cc(OC)c1OC`, the TGI in the assay with LOX IMVI melanoma turned out to be 13.5 µM; with KM12 colon it was 18.1 µM; in the assay with U251 CNS it was 23.9 µM; in the assay on SNB-75 CNS it was 8.05 µM; with UACC-257 melanoma it was 31.5 µM; with HOP-92 NSCLC, 25.5 µM. The TGI in the assay with A549 NSCLC is 70.1 µM; with ACHN renal, 35.5 µM; in the assay on CAKI-1 renal, more than 55.2 µM.
Turning to `CCC1(O)CC(OC2CC(N(C)C)C(OC3CC(O)C(OC4OC(C)C(=O)C=C4N)C(C)O3)C(C)O2)c2c(cc3c(c2O)C(=O)c2c(O)cccc2C3=O)C1C(=O)OC` (centres undefined), the TGI in the assay with LOX IMVI melanoma is 1.48 µM and 1.56 µM; in the assay with KM12 colon, 1.13 µM and 1.5 µM; in the assay on U251 CNS, 1.5 µM and 1.55 µM; with SNB-75 CNS, 0.555 µM; in the assay on UACC-257 melanoma, 0.553 µM and 0.356 µM; in the assay with HOP-92 NSCLC, 1.41 µM and 2.8 µM. In addition, the TGI was 1.63 µM with A549 NSCLC; 0.312 µM and 0.895 µM in the assay on ACHN renal; 0.308 µM and 0.0365 µM with CAKI-1 renal. In addition, the GI50 with HOP-92 NSCLC is 0.0377 µM.
